# Laboratory results from patent US7517873B2, “Substituted pyrimidodiazepines” (Hoffman-La Roche Inc., priority 2007, dated 2009).
# Target: T1, GST-PLK1 (Homo sapiens, UniProt P53350)
# T1 construct: Full-length, active GST-PLK1 is purified from Sf9 insect cells; made in house; host or cells: Sf9 insect cells
# Experiment: Biochemical Characterization Assay: GST-PLK1 kinase HTRF assay with GST-p53 substrate
# Conditions: full-length GST-PLK1, GST-p53 and ATP, 37° C. for 35 minutes, HTRF signal
# Method: Biochemical Characterization Assay
# Full-length, active GST-PLK1 is purified from Sf9 insect cells, and full-length GST-p53 is purified from E. coli. Anti-phospho p53 antibody is from Cell Signaling Technology. Europium-conjugated anti-rabbit antibody is from PerkinElmer Life and Analytical Sciences. APC-conjugated anti-GST antibody is from Prozyme.
# To assay compounds of the invention, two microliters of test compound (0.6 nM-4 mM) in DMSO or plain DMSO for control wells, 38 microliters of 20 mM HEPES pH 7, 50 mM NaCl, 10 mM MgCl2, 0.5 mM TCEP, 0.1 mM sodium orthovanadate, 0.1 mg/mL BSA, and 0.05% Triton X-100 (Kinase Assay Buffer) are added. […] Six microliters of GST-PLK1 (3 ug/mL) in Kinase Assay Buffer are then added and the solution incubated at 37° C. for 35 minutes. Six microliters of solution containing 43 mM EDTA to stop the reaction and a 1:600 dilution of anti-phospho-p53 antibody in 20 mM HEPES pH 7, 50 mM NaCl, and 0.5 mg/mL BSA (Antibody Binding Buffer) are added and the solution incubated at 37° C. for 30 minutes. […] The HTRF signal is read on an Envision reader from PerkinElmer Life and Analytical Sciences.
# T1 sequence (P53350 whole entry): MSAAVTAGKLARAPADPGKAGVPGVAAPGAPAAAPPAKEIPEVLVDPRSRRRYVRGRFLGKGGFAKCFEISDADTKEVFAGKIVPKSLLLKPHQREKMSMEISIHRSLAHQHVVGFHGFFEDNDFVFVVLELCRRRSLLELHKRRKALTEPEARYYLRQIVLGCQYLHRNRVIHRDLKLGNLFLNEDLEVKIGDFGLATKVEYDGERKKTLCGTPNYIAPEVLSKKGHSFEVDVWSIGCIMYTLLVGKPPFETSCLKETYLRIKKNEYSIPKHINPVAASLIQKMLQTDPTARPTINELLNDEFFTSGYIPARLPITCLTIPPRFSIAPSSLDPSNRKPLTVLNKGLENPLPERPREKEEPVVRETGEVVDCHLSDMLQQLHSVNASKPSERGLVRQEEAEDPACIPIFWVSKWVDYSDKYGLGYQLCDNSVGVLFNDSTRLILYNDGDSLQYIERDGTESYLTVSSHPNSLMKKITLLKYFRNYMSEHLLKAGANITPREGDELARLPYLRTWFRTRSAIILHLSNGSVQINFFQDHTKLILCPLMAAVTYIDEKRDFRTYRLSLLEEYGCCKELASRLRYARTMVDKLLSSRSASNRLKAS
row,IC50,SMILES
1,500 to 5000 nM,"CC1CN(C2CCCC2)c2nc(Nc3ccc(C(=O)NCCCN(C)C)c(Cl)c3)ncc2N(C)C1=O (racemic) [I-83, (rac)-2-Chloro-4-(9-cyclopentyl-5,7-dimethyl-6-oxo-6,7,8,9-tetrahydro-5H-pyrimido[4,5-b][1,4]diazepin-2-ylamino)-N-(3-dimethylamino-propyl)-benzamide]"
2,< 500 nM,"CC1CN(C2CCCC2)c2nc(Nc3ccc(C(=O)NC4CCN(C)CC4)c(Cl)c3)ncc2N(C)C1=O (racemic) [I-84, (rac)-2-Chloro-4-(9-cyclopentyl-5,7-dimethyl-6-oxo-6,7,8,9-tetrahydro-5H-pyrimido[4,5-b][1,4]diazepin-2-ylamino)-N-(1-methyl-piperidin-4-yl)-benzamide]"
3,< 500 nM,"C=CCN1CC(C)C(=O)N(C)c2cnc(Nc3ccc(C(=O)NC4CCN(C)CC4)cc3OC)nc21 (racemic) [I-65, (rac)-4-(9-Allyl-5,7-dimethyl-6-oxo-6,7,8,9-tetrahydro-5H-pyrimido[4,5-b][1,4]diazepin-2-ylamino)-3-methoxy-N-(1-methyl-piperidin-4-yl)-benzamide]"
4,> 5000 nM,"COc1cc(C(=O)N2CCCCC2)ccc1Nc1ncc2c(n1)N(C1CCCCC1)CCC(=O)N2 [I-32, 9-Cyclohexyl-2-[2-methoxy-4-(piperidine-1-carbonyl)-phenylamino]-5,7,8,9-tetrahydro-pyrimido[4,5-b][1,4]diazepin-6-one]"
5,< 500 nM,"COc1cc(C(=O)NN)ccc1Nc1ncc2c(n1)N(C1CCCC1)CC(C)C(=O)N2C (racemic) [I-79, (rac)-4-(9-Cyclopentyl-5,7-dimethyl-6-oxo-6,7,8,9-tetrahydro-5H-pyrimido[4,5-b][1,4]diazepin-2-ylamino)-3-methoxy-benzoic acid hydrazide]"
6,< 500 nM,"COc1cc(C(=O)NC2CCN(C)CC2)ccc1Nc1ncc2c(n1)N(C1CCCC1)C[C@H](C)C(=O)N2C [I-2b, 7S-4-(9-cyclopentyl-5,7-dimethyl-6-oxo-6,7,8,9-tetrahydro-5H-pyrimido[4,5-b][1,4]diazepin-2-ylamino)-3-methoxy-N-(1-methyl-piperidin-4-yl)-benzamide]"
7,< 500 nM,"Cc1cc(C(=O)NC2CCN(C)CC2)ccc1Nc1ncc2c(n1)N(C1CCCC1)CC(C)(C)C(=O)N2C [I-56, 4-(9-Cyclopentyl-5,7,7-trimethyl-6-oxo-6,7,8,9-tetrahydro-5H-pyrimido[4,5-b][1,4]diazepin-2-ylamino)-3-methyl-N-(1-methyl-piperidin-4-yl)-benzamide]"
8,> 5000 nM,"COc1cc(C(=O)NC2CCN(C)CC2)ccc1Nc1ncc2c(n1)N1CCCC(C1)C(=O)N2C (racemic) [I-67, (rac)-3-Methoxy-4-(8-methyl-9-oxo-1,3,5,8-tetraaza-tricyclo[8.3.1.0*2,7*]tetradeca-2,4,6-trien-4-ylamino)-N-(1-methyl-piperidin-4-yl)-benzamide]"
9,< 500 nM,"COc1cc(C(=O)NC2CCN(C)CC2)ccc1Nc1ncc2c(n1)N(C1CCCC1)C1CCCC1C(=O)N2C (racemic) [I-68, (rac)-4-(4-Cyclopentyl-9-methyl-10-oxo-1,2,3,3a,4,9,10,10a-octahydro-4,5,7,9-tetraaza-benzo[f]azulen-6-ylamino)-3-methoxy-N-(1-methyl-piperidin-4-yl)-benzamide]"
10,< 500 nM,"COc1cc(C(=O)NC2CCN(C)CC2)ccc1Nc1ncc2c(n1)N(C1CCC1)CC(C)C(=O)N2C (racemic) [I-52, (rac)-4-(9-Cyclobutyl-5,7-dimethyl-6-oxo-6,7,8,9-tetrahydro-5H-pyrimido[4,5-b][1,4]diazepin-2-ylamino)-3-methoxy-N-(1-methyl-piperidin-4-yl)-benzamide]"
11,< 500 nM,"COc1cc(C(=O)NC2CCN(C)CC2)ccc1Nc1ncc2c(n1)N(C1CCOCC1)CC(C)C(=O)N2C (racemic) [I-45, (rac)-4-[5,7-Dimethyl-6-oxo-9-(tetrahydro-pyran-4-yl)-6,7,8,9-tetrahydro-5H-pyrimido[4,5-b][1,4]diazepin-2-ylamino]-3-methoxy-N-(1-methyl-piperidin-4-yl)-benzamide]"
12,500 to 5000 nM,"COc1ccc(NC(=O)C2CCN(C(C)=O)CC2)cc1Nc1ncc2c(n1)N(C1CCCC1)CC(C)C(=O)N2C (racemic) [I-80, (rac)-1-Acetyl-piperidine-4-carboxylic acid [3-(9-cyclopentyl-5,7-dimethyl-6-oxo-6,7,8,9-tetrahydro-5H-pyrimido[4,5-b][1,4]diazepin-2-ylamino)-4-methoxy-phenyl]-amide]"
13,> 5000 nM,"CC1CN(C2CCCC2)c2nc(Nc3ccc(OCc4ccccc4)cc3)ncc2N(C)C1=O (racemic) [I-75, (rac)-2-(4-Benzyloxy-phenylamino)-9-cyclopentyl-5,7-dimethyl-5,7,8,9-tetrahydro-pyrimido[4,5-b][1,4]diazepin-6-one]"
14,500 to 5000 nM,"COc1cc(C(=O)NC2CCN(C)CC2)ccc1Nc1ncc2c(n1)N(CCC(C)C)CC(C)C(=O)N2C (racemic) [I-27, (rac)-4-[5,7-Dimethyl-9-(3-methyl-butyl)-6-oxo-6,7,8,9-tetrahydro-5H-pyrimido[4,5-b][1,4]diazepin-2-ylamino]-3-methoxy-N-(1-methyl-piperidin-4-yl)-benzamide]"
15,< 500 nM,"CN1CCC(NC(=O)c2ccc(Nc3ncc4c(n3)N(C3CCCC3)CC3(CC3)C(=O)N4C)cc2)CC1 [I-62, 4-[(9-Cyclopentyl-6,7,8,9-tetrahydro-5-methyl-6-oxospiro[5H-pyrimido[4,5-b][1,4]diazepine-7,1′-cyclopropan]-2-yl)amino]-N-(1-methyl-4-piperidinyl)benzamide]"
16,> 5000 nM,"CCCNC(=O)c1ccc(Nc2ncc3c(n2)N(C2CCCCC2)CCC(=O)N3)c(OC)c1 [I-30, 4-(9-Cyclohexyl-6-oxo-6,7,8,9-tetrahydro-5H-pyrimido[4,5-b][1,4]diazepin-2-ylamino)-3-methoxy-N-propyl-benzamide]"
17,< 500 nM,"COc1cc(C(=O)NC2CCN(C)CC2)ccc1Nc1ncc2c(n1)N(C1CCCCC1)CC(C)C(=O)N2C (racemic) [I-19, (rac)-4-(9-Cyclohexyl-5,7-dimethyl-6-oxo-6,7,8,9-tetrahydro-5H-pyrimido[4,5-b][1,4]diazepin-2-ylamino)-3-methoxy-N-(1-methyl-piperidin-4-yl)-benzamide]"
18,> 5000 nM,"CC1CN(C2CCCC2)c2nc(Nc3ccc(C(=O)Nc4cccnc4)c(Cl)c3)ncc2N(C)C1=O (racemic) [I-82, (rac)-2-Chloro-4-(9-cyclopentyl-5,7-dimethyl-6-oxo-6,7,8,9-tetrahydro-5H-pyrimido[4,5-b][1,4]diazepin-2-ylamino)-N-pyridin-3-yl-benzamide]"
19,< 500 nM,"CN1C(=O)C2(CC2)CN(C2CCCC2)c2nc(Nc3ccc(C(=O)NC4CCOCC4)cc3)ncc21 [I-63, 4-[(9-Cyclopentyl-6,7,8,9-tetrahydro-5-methyl-6-oxospiro[5H-pyrimido[4,5-b][1,4]diazepine-7,1′-cyclopropan]-2-yl)amino]-N-(tetrahydropyran-4-yl)benzamide]"
20,> 5000 nM,"CC1CN(C2CCCCC2)c2nc(Nc3ccc4oc(-c5ccncc5)nc4c3)ncc2N(C)C1=O (racemic) [I-26, (rac)-9-Cyclohexyl-5,7-dimethyl-2-(2-pyridin-4-yl-benzooxazol-5-ylamino)-5,7,8,9-tetrahydro-pyrimido[4,5-b][1,4]diazepin-6-one]"
